Data from ChEMBL document CHEMBL1201862, “PubChem BioAssay data set” (2004).
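Where inhibition never reached the appropriate level, the endpoint shown equals the highest concentration tested. Otherwise, values were interpolated linearly from a five-concentration, 48-hour dose response in 96-well plates. Here, GI50 denotes the concentration required for 50% inhibition of growth.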 Active and inactive are the calls of the source. Cut-off read from the data, not from the text of the source: active = GI50 up to about 1.1 µM and inactive = higher.

Columns and labels:
Assay in all cases: NCI-60 cell line screen, 48 h
DLD-1 = tested on: DLD-1
HOP-18 = tested on: HOP-18
XF498 = tested on: XF498
RXF 631 = tested on: RXF 631
LXFL 529 = tested on: LXFL 529
DMS-273 = tested on: DMS-273
KM-20L2 = tested on: KM-20L2
M19-MEL = tested on: M19-MEL
SNB-78 = tested on: SNB-78

Structure (SMILES)	GI50 (DLD-1)	GI50 (HOP-18)	GI50 (XF498)	GI50 (RXF 631)	GI50 (LXFL 529)	GI50 (DMS-273)	GI50 (KM-20L2)	GI50 (M19-MEL)	GI50 (SNB-78)
O=C(COC(=O)c1cccc2c(=O)c3ccccc3[nH]c12)Nc1ccccc1	65 µM (inactive)	> 100 µM (inactive)	32.1 µM (inactive)	28.5 µM (inactive)	28.6 µM (inactive)	58.1 µM (inactive)	79.6 µM (inactive)	33.6 µM (inactive)	
Cc1cc2c(c3nocc13)C(=O)c1ccccc1C2=O	> 100 µM (inactive)	> 100 µM (inactive)		> 100 µM (inactive)	> 100 µM (inactive)	> 100 µM (inactive)	> 100 µM (inactive)	> 100 µM (inactive)	
CSc1nc(SC)c2c(C(N)=S)n[nH]c2n1	37 µM (inactive)			32 µM (inactive)	29.6 µM (inactive)	30 µM (inactive)	23.1 µM (inactive)	28.2 µM (inactive)	31.8 µM (inactive)
C/C=C(\CCOS(=O)(=O)c1ccc(C)cc1)[Si](C)(C)C	> 100 µM (inactive)	> 100 µM (inactive)	> 100 µM (inactive)	> 100 µM (inactive)	> 100 µM (inactive)	> 100 µM (inactive)	> 100 µM (inactive)	> 100 µM (inactive)	> 100 µM (inactive)
CCOC(=O)C1C(c2ccc([N+](=O)[O-])cc2)NC(c2ccc([N+](=O)[O-])cc2)C(C(=O)OC)S1(=O)=O (stereo unspecified)	> 100 µM (inactive)	> 100 µM (inactive)	> 100 µM (inactive)		> 100 µM (inactive)	> 100 µM (inactive)	> 100 µM (inactive)	> 100 µM (inactive)	> 100 µM (inactive)
S=c1cc(S)c2c(=S)sc3nc4ccccn4c(=S)c3c2s1	> 100 µM (inactive)	> 100 µM (inactive)	> 100 µM (inactive)			63.4 µM (inactive)	46.3 µM (inactive)	35.5 µM (inactive)	> 100 µM (inactive)
CCOC(=O)/C(=C\c1ccc(N(CCC#N)CCC#N)cc1)NC(=O)c1cc([N+](=O)[O-])ccc1Cl	> 100 µM (inactive)	> 100 µM (inactive)		> 100 µM (inactive)	> 100 µM (inactive)	> 100 µM (inactive)	> 100 µM (inactive)	> 100 µM (inactive)	> 100 µM (inactive)
CC(C)C/C(CC(=O)CCC(=O)Nc1ccccc1[N+](=O)[O-])=N\NC(=O)c1cc2ccccc2cc1O	55.2 µM (inactive)	21.8 µM (inactive)	30.7 µM (inactive)	31.2 µM (inactive)	29.7 µM (inactive)		32.1 µM (inactive)	24.2 µM (inactive)	
COc1ccccc1-n1c(N)c2c(C)c(-c3ccccc3)[nH]c2nc1=S	> 100 µM (inactive)	4.04 µM (inactive)	> 100 µM (inactive)		> 100 µM (inactive)	> 100 µM (inactive)	18.7 µM (inactive)	> 100 µM (inactive)	
CCCCCCCCCCCCCC(=O)OC(/C=C/C(C)C)C(O)C(O)C(OC)C(=O)NC1CCCCNC1=O (stereo unspecified)	0.637 µM (active)	2.23 µM (inactive)	1.78 µM (inactive)		1.39 µM (inactive)	0.0916 µM (active)	1.46 µM (inactive)		2.82 µM (inactive)
[N-]=[N+]=NC1C(Br)C(=O)NC(=O)N1[C@H]1C[C@H](O)[C@@H](CO)O1 (stereo partly specified)	> 100 µM (inactive)		> 100 µM (inactive)		> 100 µM (inactive)	> 100 µM (inactive)	> 100 µM (inactive)		> 100 µM (inactive)
N#C/C(=C/c1cccnc1)C(=O)c1ccccc1	> 100 µM (inactive)	> 100 µM (inactive)	> 100 µM (inactive)		> 100 µM (inactive)	> 100 µM (inactive)	> 100 µM (inactive)	> 100 µM (inactive)	> 100 µM (inactive)
COc1ccc2nc3ccccc3c(NCCCCCN(CCCl)CCCl)c2c1		0.306 µM (active)	0.051 µM (active)		0.112 µM (active)	< 0.0365 µM (active)	0.0647 µM (active)	0.116 µM (active)	0.277 µM (active)
